Target: T1, rat B1R (bradykinin receptor 1) (Rattus norvegicus, UniProt P97583)
T1 construct: expressed in transfected cells; host or cells: CHO K1 cells
T1 sequence (P97583 1-337): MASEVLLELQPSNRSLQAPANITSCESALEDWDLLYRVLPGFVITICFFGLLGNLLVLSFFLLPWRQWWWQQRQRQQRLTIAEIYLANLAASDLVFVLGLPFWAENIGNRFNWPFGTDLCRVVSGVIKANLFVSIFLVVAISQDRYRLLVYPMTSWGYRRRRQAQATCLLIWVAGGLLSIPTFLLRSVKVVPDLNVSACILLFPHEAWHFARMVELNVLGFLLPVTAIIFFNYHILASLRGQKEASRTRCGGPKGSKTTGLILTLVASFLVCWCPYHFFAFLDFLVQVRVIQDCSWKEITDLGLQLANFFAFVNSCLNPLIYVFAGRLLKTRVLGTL
Assay: FLIPR Ca2+ assay (Fluo-4) on CHO K1 cells stably transfected with the B1R gene of the rat (rB1R cells): % inhibition at 10 μM / IC50, agonist Des-Arg9-bradykinin
Format: cell-based
Conditions: CHO-K1, rat B1R
Procedure, shortened: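 Peak fluorescence counts read on FLIPR (λex 488, λem 540 nm) after two additions: compound first, then agonist at EC80 after 10–20 min. Human line challenged with Lys-Des-Arg9-bradykinin, rat line with Des-Arg9-bradykinin. Suppression of Ca2+ inflow expressed as % of maximum inhibition.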

inhibition at 10 µM	Compound
98%	O=C(c1ccc2c(c1)C(NS(=O)(=O)Cc1cccc(Cl)c1)CC2)N1CCC2(CC1)CCN(c1ccncc1)CC2 (stereo not drawn) [IND_CC-352, 1-(3-Chlorophenyl)-N-[6-(9-pyridin-4-yl-3,9-diazaspiro[5.5]undecane-3-carbonyl)-2,3-dihydro-1H-inden-1-yl]-methanesulfonic acid amide]
97%	O=C(c1ccc2c(c1)C(NS(=O)(=O)Cc1cccc(Cl)c1)CC2)N1CCC2(CC1)CCN(c1ccncc1)C2 (stereo not drawn) [IND_CC-353, 1-(3-Chlorophenyl)-N-[6-(2-pyridin-4-yl-2,8-diazaspiro[4.5]decane-8-carbonyl)-2,3-dihydro-1H-inden-1-yl]-methanesulfonic acid amide]
84%	Cc1cc(F)cc(C)c1S(=O)(=O)N(C)C1CCc2ccc(C(=O)N3CCC4(CC3)CCN(c3ccncc3)CC4)cc21 (stereo not drawn) [IND_CC-354, 4-Fluoro-N,2,6-trimethyl-N-[6-(9-pyridin-4-yl-3,9-diazaspiro[5.5]undecane-3-carbonyl)-2,3-dihydro-1H-inden-1-yl]-benzenesulfonic acid amide]
65%	Cc1cc(F)cc(C)c1S(=O)(=O)NC1CCc2ccc(C(=O)N3CCC4(CC3)CCN(c3ccncc3)CC4)cc21 (stereo not drawn) [IND_CC-355, 4-Fluoro-2,6-dimethyl-N-[6-(9-pyridin-4-yl-3,9-diazaspiro[5.5]undecane-3-carbonyl)-2,3-dihydro-1H-inden-1-yl]-benzenesulfonic acid amide]
69%	Cc1cc(F)cc(C)c1S(=O)(=O)NC1CCc2ccc(C(=O)N3CCC4(CC3)CCN(c3ccncc3)C4)cc21 (stereo not drawn) [IND_CC-356, 4-Fluoro-2,6-dimethyl-N-[6-(2-pyridin-4-yl-2,8-diazaspiro[4.5]decane-8-carbonyl)-2,3-dihydro-1H-inden-1-yl]-benzenesulfonic acid amide]
95%	O=C(c1ccc2c(c1)C(NS(=O)(=O)c1cc(Cl)ccc1Cl)CC2)N1CCC2(CCN(c3ccncc3)CC2)C1 (stereo not drawn) [IND_CC-357, 2,5-Dichloro-N-[6-(8-pyridin-4-yl-2,8-diazaspiro[4.5]decane-2-carbonyl)-2,3-dihydro-1H-inden-1-yl]-benzenesulfonic acid amide]
104%	O=C(c1ccc2c(c1)C(NS(=O)(=O)Cc1ccccc1F)CC2)N1CCC2(CCN(c3ccncc3)CC2)C1 (stereo not drawn) [IND_CC-359, 1-(2-Fluorophenyl)-N-[6-(8-pyridin-4-yl-2,8-diazaspiro[4.5]decane-2-carbonyl)-2,3-dihydro-1H-inden-1-yl]-methanesulfonic acid amide]
69%	O=C(c1ccc2c(c1)C(NS(=O)(=O)Cc1cccc(Cl)c1)CC2)N1CCC2(CCN(c3ccncc3)CC2)C1 (stereo not drawn) [IND_CC-360, 1-(3-Chlorophenyl)-N-[6-(8-pyridin-4-yl-2,8-diazaspiro[4.5]decane-2-carbonyl)-2,3-dihydro-1H-inden-1-yl]-methanesulfonic acid amide]
99%	Cc1cc(F)cc(C)c1S(=O)(=O)NC1CCc2ccc(C(=O)N3CCC4(CCN(c5ccncc5)CC4)C3)cc21 (stereo not drawn) [IND_CC-361, 4-Fluoro-2,6-dimethyl-N-[6-(8-pyridin-4-yl-2,8-diazaspiro[4.5]decane-2-carbonyl)-2,3-dihydro-1H-inden-1-yl]-benzenesulfonic acid amide]
81%	CN(C1CCc2ccc(C(=O)N3CCC4(CC3)CCN(c3ccncc3)CC4)cc21)S(=O)(=O)c1cc(Cl)c(Cl)cc1Cl (stereo not drawn) [IND_CC-362, 2,4,5-Trichloro-N-methyl-N-[6-(9-pyridin-4-yl-3,9-diazaspiro[5.5]undecane-3-carbonyl)-2,3-dihydro-1H-inden-1-yl]-benzenesulfonic acid amide]
74%	O=C(c1ccc2c(c1)C(NS(=O)(=O)c1cc(Cl)c(Cl)cc1Cl)CC2)N1CCC2(CC1)CCN(c1ccncc1)C2 (stereo not drawn) [IND_CC-363, 2,4,5-Trichloro-N-[6-(2-pyridin-4-yl-2,8-diazaspiro[4.5]decane-8-carbonyl)-2,3-dihydro-1H-inden-1-yl]-benzenesulfonic acid amide]
103%	O=C(NC1CCc2ccc(C(=O)N3CCC4(CC3)CCN(c3ccncc3)CC4)cc21)C1CCCCC1 (stereo not drawn) [IND_CC-364, N-[6-(9-Pyridin-4-yl-3,9-diazaspiro[5.5]undecane-3-carbonyl)-2,3-dihydro-1H-inden-1-yl]-cyclohexanecarboxylic acid amide]
105%	CN(C(=O)C1CCCCC1)C1CCc2ccc(C(=O)N3CCC4(CC3)CCN(c3ccncc3)CC4)cc21 (stereo not drawn) [IND_CC-365, N-Methyl-N-[6-(9-pyridin-4-yl-3,9-diazaspiro[5.5]undecane-3-carbonyl)-2,3-dihydro-1H-inden-1-yl]-cyclohexanecarboxylic acid amide]
104%	O=C(NC1CCc2ccc(C(=O)N3CCC4(CC3)CCN(c3ccncc3)C4)cc21)C1CCCCC1 (stereo not drawn) [IND_CC-366, N-[6-(2-Pyridin-4-yl-2,8-diazaspiro[4.5]decane-8-carbonyl)-2,3-dihydro-1H-inden-1-yl]-cyclohexanecarboxylic acid amide]
104%	O=C(NC1CCc2ccc(C(=O)N3CCC4(CCN(c5ccncc5)CC4)C3)cc21)C1CCCCC1 (stereo not drawn) [IND_CC-367, N-[6-(8-Pyridin-4-yl-2,8-diazaspiro[4.5]decane-2-carbonyl)-2,3-dihydro-1H-inden-1-yl]-cyclohexanecarboxylic acid amide]
87%	O=C(NC1CCc2ccc(C(=O)N3CCC4(CC3)CCN(c3ccncc3)CC4)cc21)C1CC1 (stereo not drawn) [IND_CC-368, N-[6-(9-Pyridin-4-yl-3,9-diazaspiro[5.5]undecane-3-carbonyl)-2,3-dihydro-1H-inden-1-yl]-cyclopropanecarboxylic acid amide]
74%	CN(C(=O)C1CC1)C1CCc2ccc(C(=O)N3CCC4(CC3)CCN(c3ccncc3)CC4)cc21 (stereo not drawn) [IND_CC-369, N-Methyl-N-[6-(9-pyridin-4-yl-3,9-diazaspiro[5.5]undecane-3-carbonyl)-2,3-dihydro-1H-inden-1-yl]-cyclopropanecarboxylic acid amide]
100%	O=C(NC1CCc2ccc(C(=O)N3CCC4(CCN(c5ccncc5)CC4)C3)cc21)C1CC1 (stereo not drawn) [IND_CC-370, N-[6-(8-Pyridin-4-yl-2,8-diazaspiro[4.5]decane-2-carbonyl)-2,3-dihydro-1H-inden-1-yl]-cyclopropanecarboxylic acid amide]
104%	CC(C)(C)CC(=O)NC1CCc2ccc(C(=O)N3CCC4(CC3)CCN(c3ccncc3)CC4)cc21 (stereo not drawn) [IND_CC-371, 3,3-Dimethyl-N-[6-(9-pyridin-4-yl-3,9-diazaspiro[5.5]undecane-3-carbonyl)-2,3-dihydro-1H-inden-1-yl]-butyramide]
105%	CN(C(=O)CC(C)(C)C)C1CCc2ccc(C(=O)N3CCC4(CC3)CCN(c3ccncc3)CC4)cc21 (stereo not drawn) [IND_CC-372, N,3,3-Trimethyl-N-[6-(9-pyridin-4-yl-3,9-diazaspiro[5.5]undecane-3-carbonyl)-2,3-dihydro-1H-inden-1-yl]-butyramide]
102%	CC(C)(C)CC(=O)NC1CCc2ccc(C(=O)N3CCC4(CC3)CCN(c3ccncc3)C4)cc21 (stereo not drawn) [IND_CC-373, 3,3-Dimethyl-N-[6-(2-pyridin-4-yl-2,8-diazaspiro[4.5]decane-8-carbonyl)-2,3-dihydro-1H-inden-1-yl]-butyramide]
103%	CC(C)(C)CC(=O)NC1CCc2ccc(C(=O)N3CCC4(CCN(c5ccncc5)CC4)C3)cc21 (stereo not drawn) [IND_CC-374, 3,3-Dimethyl-N-[6-(8-pyridin-4-yl-2,8-diazaspiro[4.5]decane-2-carbonyl)-2,3-dihydro-1H-inden-1-yl]-butyramide]
59%	CC(=O)NC1CCc2ccc(C(=O)N3CCC4(CCN(c5ccncc5)CC4)C3)cc21 (stereo not drawn) [IND_CC-375, N-[6-(8-Pyridin-4-yl-2,8-diazaspiro[4.5]decane-2-carbonyl)-2,3-dihydro-1H-inden-1-yl]-acetamide]
102%	O=C(NC1CCc2ccc(C(=O)N3CCC4(CC3)CCN(c3ccncc3)CC4)cc21)c1c(F)cccc1C(F)(F)F (stereo not drawn) [IND_CC-376, 2-Fluoro-N-[6-(9-pyridin-4-yl-3,9-diazaspiro[5.5]undecane-3-carbonyl)-2,3-dihydro-1H-inden-1-yl]-6-(trifluoromethyl)-benzamide]
104%	O=C(NC1CCc2ccc(C(=O)N3CCC4(CC3)CCN(c3ccncc3)C4)cc21)c1c(F)cccc1C(F)(F)F (stereo not drawn) [IND_CC-377, 2-Fluoro-N-[6-(2-pyridin-4-yl-2,8-diazaspiro[4.5]decane-8-carbonyl)-2,3-dihydro-1H-inden-1-yl]-6-(trifluoromethyl)-benzamide]
104%	O=C(NC1CCc2ccc(C(=O)N3CCC4(CCN(c5ccncc5)CC4)C3)cc21)c1c(F)cccc1C(F)(F)F (stereo not drawn) [IND_CC-378, 2-Fluoro-N-[6-(8-pyridin-4-yl-2,8-diazaspiro[4.5]decane-2-carbonyl)-2,3-dihydro-1H-inden-1-yl]-6-(trifluoromethyl)-benzamide]
103%	O=C(NC1CCc2ccc(C(=O)N3CCC4(CC3)CCN(c3ccncc3)CC4)cc21)c1ccc(F)cc1C(F)(F)F (stereo not drawn) [IND_CC-379, 4-Fluoro-N-[6-(9-pyridin-4-yl-3,9-diazaspiro[5.5]undecane-3-carbonyl)-2,3-dihydro-1H-inden-1-yl]-2-(trifluoromethyl)-benzamide]

From US8455475B2 (Gruenenthal GmbH, priority 2009, dated 2013)
